Assay [1] concerns Mus musculus. Description: The percent increase in life span was measured using CD2F1 male mice at 239 mg/kg dose. Type of assay: functional.
The subject of assay [2] is Mus musculus. Description: Mean survival time of compound was measured using CD2F1 male mice in group of ten at 239 mg/kg dose on day 30. It counts as functional.
For assay [3], the system named is Mus musculus. In words: %Survival of compound was measured using CD2F1 male mice in group of ten at 239 mg/kg dose on day 30. Type of assay: functional. To be noted: 720 h.
Assay [4] deals with Mus musculus. In words: Mean survival time of treated group(T) and Mean survival time of control group(C) was measured using CD2F1 male mice at 239 mg/kg dose. It counts as functional.
Assay [5] concerns V79. In words: The in vitro radioprotective effect measured against Chinese hamster V-79 cells at concentration of 0.1 mM. It counts as functional, Cricetulus griseus.
The subject of assay [6] is V79. Description: The cytotoxicity in vitro against Chinese hamster V-79 cells at concentration of 0.5 mM. To be noted: Cricetulus griseus, read-out: Survival. It counts as functional.
Assay [7] has as its system V79. In words: The cytotoxicity in vitro against Chinese hamster V-79 cells at concentration of 1 mM. It counts as functional. To be noted: Cricetulus griseus, read-out: Survival.
Assay [8] concerns V79. Description: The cytotoxicity in vitro against Chinese hamster V-79 cells at concentration of 0.1 mM. Type of assay: functional. The note with it: Cricetulus griseus, read-out: Survival.
Assay [9] has as its system Mus musculus. Description: The percent increase in life span was measured using CD2F1 male mice at 469 mg/kg dose. It counts as functional.
The subject of assay [10] is Mus musculus. In words: Mean survival time of compound was measured using CD2F1 male mice in group of ten at 469 mg/kg dose on day 30. Type of assay: functional.
The test system of assay [11] is Mus musculus. Description: %Survival of compound was measured using CD2F1 male mice in group of ten at 469 mg/kg dose on day 30. The note with it: 720 h. It counts as functional.
Assay [12] is described as follows: Mean survival time of treated group(T) and Mean survival time of control group(C) was measured using CD2F1 male mice at 469 mg/kg dose. Type of assay: functional.
Assay [13] relates to Mus musculus. In words: The percent increase in life span was measured using CD2F1 male mice at 400 mg/kg dose. Type of assay: functional.
Assay [14] deals with Mus musculus. Description: Mean survival time of compound was measured using CD2F1 male mice in group of ten at 400 mg/kg dose on day 30. Type of assay: functional.
Assay [15] has as its system Mus musculus. In words: %Survival of compound was measured using CD2F1 male mice in group of ten at 400 mg/kg dose on day 30. It counts as functional. The note with it: 720 h.
The test system of assay [16] is V79. In words: The cytotoxicity in vitro against Chinese hamster V-79 cells at concentration of 0.5 mM; NA= Not active. Type of assay: functional, cell-based. To be noted: Cricetulus griseus.
Assay [17] deals with V79. In words: The cytotoxicity in vitro against Chinese hamster V-79 cells at concentration of 0.1 mM; NA= Not active. It counts as functional, cell-based. To be noted: Cricetulus griseus.
Assay [18] can be described thus: Mean survival time of treated group(T) and Mean survival time of control group(C) was measured using CD2F1 male mice at 400 mg/kg dose. Type of assay: functional.

Activity calls are given as the source filed them. The rule behind the calls is not given here.

This is an account of results in ChEMBL document CHEMBL1152029 (1997).

For orientation: ILS means how much longer treated animals lived than controls. Low values mean little gain in survival, high ones much gain in survival. The compound `NCCCNCCSP(=O)(O)O` [AMIFOSTINE] yielded an increase in life span (ILS) at 239 mg/kg in assay [1] of 130%. The compound further yielded an MST in assay [2] of 27. In assay [3], this compound registered a survival at 239 mg/kg of 80%. In addition, in [4], the Ratio stood at 2.63. In addition, in [5], the DMF amounted to 1.4. Also, in assay [6], the viability at 500 µM is 2%. Moreover, the viability at 1000 µM in assay [7] worked out at 0%. In addition, the viability at 100 µM in assay [8] was found to be 100%.

On to `CNCCCNCCCSP(=O)(O)O`, for which, in assay [9], the ILS at 469 mg/kg worked out at 18%. Moreover, the MST in [10] stood at 20. Moreover, the survival at 469 mg/kg in [11] was determined as 60%. The DMF in assay [5] stood at 1.5. The viability at 500 µM in assay [6] was determined as 99%. Moreover, the viability at 1000 µM in [7] is 90%. Moreover, the viability at 100 µM in assay [8] stood at 93%. Further, the Ratio in assay [12] was 1.94.

For the compound `CNCCCNCCCSP(=O)(Oc1ccc(Cl)cc1)SCCCNCCCNC`, the ILS at 400 mg/kg in [13] is 73%. Also, the MST in assay [14] is reported as 23. The survival at 400 mg/kg in assay [15] amounted to 50%. For the same compound, in [5], the DMF stood at 1.65. For the same compound, the Survival result in assay [16] and in assay [17] was “inactive” throughout. Moreover, the viability at 1000 µM in [7] was 94%. In addition, in assay [18], the Ratio worked out at 2.26.
